Measured values as given in patent US20120295935A1, “MIXED AMINAL PHARMACEUTICAL COMPOSITIONS AND USES THEREOF” (priority 2010, published 2012).

Assays:
C57/BL/6 female mice = experiment: Mouse tibia bone formation, ankle loading plus local salubrinal; assay type: in vivo
Procedure: Mouse tibia-bone formation: Twenty C57/BL/6 female mice (˜8 weeks, body weight ˜18 g) were employed to examine the combined effects of ankle loading and local administration of salubrinal to the tibia (Zhang P, et al., Salubrinal stimulates anabolic responses in mouse femora, 55th Ann Meeting ORS (2009)). Local administration was targeted into a bone marrow cavity from the proximal tibia. A total volume of 20 μl PBS was injected to the left hindlimb with or without 0.025 mg/kg (100 μM) salubrinal (Calbiochem) using a micro-syringe with a 0.5-inch #26-gauge needle (Worsham D N, et al., In vivo gene transfer into adult stem cells in unconditioned mice by in situ delivery of a lentiviral vector, Mol. Ther. 14:514-24 (2006); Zhu Y, et al., eIF-2a protects brainstem motoneurons in a murine model of sleep apnea, J. Neurosci. 28:2168-78 (2008)). In examination of the combined effects of mechanical loading and salubrinal administration, ankle loading was given for 5 consecutive days after administration of salubrinal on each day. The mouse was placed in an anesthetic induction chamber to cause sedation and then mask-anesthetized using 1.5% isoflurane. With a custom-made piezoelectric mechanical loader, loads were applied to the left ankle for 5 min/day in the lateral-medial direction. The loading frequency was 5 Hz, and the peak-to-peak force was 0.5 N (FIG. 12). The right hindlimb was used as a sham-loaded control (Zhang P, et al., Joint loading-driven bone formation and signaling pathways predicted from genome-wide expression profiles, Bone 44:989-998 (2009)).

female SD rats = experiment: Rat femur healing of surgical wounds (micro CT); assay type: in vivo; parameters: wound size decreased vs control / reduction in wound size / cortical thickness increased vs control: concentration or dose not given beside the values; settings: for cortical thickness / cortical thickness increased vs control: femur anterior hole; for cortical thickness increase: femur posterior hole; for reduction in wound size: femur posterior holes
Procedure: Rat femur—healing of surgical wounds. A surgical hole with ˜2.0 mm in diameter was generated in the left and right femurs of twenty female SD rats (˜8 weeks, body weight ˜180 g). The holes were drilled through the femur from the anterior surface to the opposite cortex (posterior surface) in the middle of the femur. During the first 5 days, 100 μl of salubrinal solution at dosage of 0.025 mg/kg was injected subcutaneously to the left limb and a PBS solution (vehicle control) in the right limb. The injection site was closed to the anterior surgical hole. Rats were sacrificed on days 10 or 20 after surgery, and the axial and transverse hole sizes as well as cortical thickness (1.5 mm proximal and distal to the center of the hole) were determined with micro CT. […] Regarding the anterior holes, the size of the wounds 10 days after surgery was smaller in the salubrinal treated group by 10.8% (1.905±0.018 mm in control and 1.700±0.021 mm in salubrinal; p<0.001). The size in 20 day samples was further decreased by 18.0% (1.812±0.017 mm in control and 1.486±0.026 mm in salubrinal; p<0.001). […] Note that the reduction in the wound size on day 20 was more significant than those on day 10 in both the anterior and posterior holes (both p<0.001) (FIG. 15B).

[1] = tested on: brainstem motoneurons in mice; settings: hypoxia and reoxygenation events; cited from earlier work
[2] = ankle loading and salubrinal injection
[3] = tibia, 0.025 mg/kg (100 μM) plus ankle loading, 5 days

Question: With `O=C(/C=C/c1ccccc1)NC(NC(=S)Nc1cccc2cccnc12)C(Cl)(Cl)Cl` (centres unmarked) [salubrinal] as the compound, how does the “relative increase in BMC vs ankle loading alone” value (C57/BL/6 female mice; [2]) read?
Answer: The value was 1.5 fold.

Question: And the “relative increase in BMD vs ankle loading alone” value (C57/BL/6 female mice; [2])?
Answer: Its value is 2.3 fold.

Question: What about the BMC (C57/BL/6 female mice; [3]) of the same compound?
Answer: The BMC was 0.0154 ± 0.0004 g.

Question: And the BMD (C57/BL/6 female mice; [3])?
Answer: Its BMD is 0.0443±0.0011 g/cm^2.

Question: And the cortical thickness (female SD rats; day 10)?
Answer: The cortical thickness was 0.476±0.012 mm.

Question: What about the “cortical thickness increased vs control” value (female SD rats; day 10) of the same compound?
Answer: The value was 11.0%.

Question: And the cortical thickness (female SD rats; day 20)?
Answer: Its cortical thickness is 0.551±0.014 mm.

Question: What about the “cortical thickness increased vs control” value (female SD rats; day 20) of the same compound?
Answer: The value was 25.7%.

Question: And the “size of the wounds” value (female SD rats; femur anterior holes, 10 days)?
Answer: Its value is 1.700±0.021 mm.

Question: And the “wound size smaller vs control” value (female SD rats; femur anterior holes, 10 days, 0.025 mg/kg s.c. first 5 days)?
Answer: Its value is 10.8%.

Question: And the “size of the wounds” value (female SD rats; femur anterior holes, 20 days)?
Answer: Its value is 1.486±0.026 mm.

Question: What about the “wound size decreased vs control” value (female SD rats; femur anterior holes, 20 days) of the same compound?
Answer: Its value is 18.0%.

Question: And the cortical thickness increase (female SD rats; postoperative 10 days)?
Answer: Its cortical thickness increase is 13.8%.

Question: What about the cortical thickness increase (female SD rats; postoperative 20 days) of the same compound?
Answer: The cortical thickness increase was 21.3%.

Question: What about the “reduction in wound size” value (female SD rats; postoperative 10 days) of the same compound?
Answer: Its value is 4.1%.

Question: What about the “reduction in wound size” value (female SD rats; postoperative 20 days) of the same compound?
Answer: Its value is 11.1%.

Question: What about the motoneuronal injury [1] of the same compound?
Answer: The motoneuronal injury was “suppressed”.
